This is an account of results in patent publication US20240237643A1, “COMPOSITIONS WITH VIRUCIDAL AND/OR ANTIVIRAL ACTIVITY” (priority 2020, published 2024).

Format in all cases: cell-based
The subject of test [1] is Coronavirus (MHV-3). As to the kind of experiment: Virucidal activity, quantitative suspension test DIN EN 14476. How it is done:
(§1) Testing was conducted over a period of 1 to 10 minutes. Activity against the following viruses was determined: • Coronavirus (MHV-3) • Influenza virus (H1N1) • Herpes simplex virus (HV) • Human respiratory syncytial virus (HRSV)
(§2) In this context (+) means that more than 99.99% of all viruses were inactivated; this is equivalent to a reduction factor of 10,000.

Test [2] deals with Influenza virus (H1N1). The test is described as above.
Test [3] has as its system Herpes simplex virus (HV). The description is as above.
In test [4] the test system is Human respiratory syncytial virus (HRSV). The description is as above.
Test [5] has as its system all virus types (MHV-3, H1N1, HV, HRSV). Briefly: Virucidal activity DIN EN 14476, summary over all virus types. The settings on record: concentration of 0.1 wt.-percent. The procedure:
as §1, §2

[6] abbreviates: 33 wt.-percent in water, 10 min.
[7] abbreviates: 0.1 wt.-percent in water, 1 min.
Setting [8] is: 0.1 wt.-percent in water, 10 min.
Setting [9] is: 10 wt.-percent in water, 10 min.

`CCCCC(O)CO` (stereo not drawn) [1,2-hexanediol]: in test [1] (33 wt.-percent in water, 1 min), the “Virucidal activity MHV-3” value was “(+) ((+) means that more than 99.99% of all viruses were inactivated; this is equivalent to a reduction factor of 10,000)”. Further, the “Virucidal activity H1N1” value in test [2] (33 wt.-percent in water, 1 min) was “(+) ((+) means that more than 99.99% of all viruses were inactivated; this is equivalent to a reduction factor of 10,000)”. In addition, the “Virucidal activity HV” value in test [3] (33 wt.-percent in water, 1 min) is “(+) ((+) means that more than 99.99% of all viruses were inactivated; this is equivalent to a reduction factor of 10,000)”. In addition, the “Virucidal activity HRSV” value in test [4] (33 wt.-percent in water, 1 min) is given as “(+) ((+) means that more than 99.99% of all viruses were inactivated; this is equivalent to a reduction factor of 10,000)”.

Regarding `CCCCCCC(O)CO` (stereo not drawn) [1,2-octanediol], in test [1] (setting [6]), the “Virucidal activity MHV-3” value was “(+) ((+) means that more than 99.99% of all viruses were inactivated; this is equivalent to a reduction factor of 10,000)”. The “Virucidal activity H1N1” value in test [2] (setting [6]) is “(+) ((+) means that more than 99.99% of all viruses were inactivated; this is equivalent to a reduction factor of 10,000)”. The “Virucidal activity HV” value in test [3] (setting [6]) was “(+) ((+) means that more than 99.99% of all viruses were inactivated; this is equivalent to a reduction factor of 10,000)”. The “Virucidal activity HRSV” value in test [4] (setting [6]) was “(+) ((+) means that more than 99.99% of all viruses were inactivated; this is equivalent to a reduction factor of 10,000)”.

For `CC(C)=CCCC(C)=CCCC(C)=CCO` [3,7,11-trimethyl-2,6,10-dodecantrien-1-ol], the “Virucidal activity MHV-3” value is on record as “(+) ((+) means that more than 99.99% of all viruses were inactivated; this is equivalent to a reduction factor of 10,000)” in test [1] (setting [7]); “(+) ((+) means that more than 99.99% of all viruses were inactivated; this is equivalent to a reduction factor of 10,000)” in test [1] (setting [8]); “(+) ((+) means that more than 99.99% of all viruses were inactivated; this is equivalent to a reduction factor of 10,000)” in test [1] (1 wt.-percent in water, 1 min); “(+) ((+) means that more than 99.99% of all viruses were inactivated; this is equivalent to a reduction factor of 10,000)” in test [1] (1 wt.-percent in water, 10 min); “(+) ((+) means that more than 99.99% of all viruses were inactivated; this is equivalent to a reduction factor of 10,000)” in test [1] (10 wt.-percent in water, 1 min); “(+) ((+) means that more than 99.99% of all viruses were inactivated; this is equivalent to a reduction factor of 10,000)” in test [1] (setting [9]). Further, the “Virucidal activity H1N1” value in test [2] (setting [7]) is reported as “(+) ((+) means that more than 99.99% of all viruses were inactivated; this is equivalent to a reduction factor of 10,000)”; in test [2] (setting [8]), “(+) ((+) means that more than 99.99% of all viruses were inactivated; this is equivalent to a reduction factor of 10,000)”; in test [2] (1 wt.-percent in water, 1 min) it was “(+) ((+) means that more than 99.99% of all viruses were inactivated; this is equivalent to a reduction factor of 10,000)”; in test [2] (1 wt.-percent in water, 10 min), “(+) ((+) means that more than 99.99% of all viruses were inactivated; this is equivalent to a reduction factor of 10,000)”; in test [2] (10 wt.-percent in water, 1 min), “(+) ((+) means that more than 99.99% of all viruses were inactivated; this is equivalent to a reduction factor of 10,000)”; in test [2] (setting [9]), “(+) ((+) means that more than 99.99% of all viruses were inactivated; this is equivalent to a reduction factor of 10,000)”. In addition, the “Virucidal activity HV” value was “(+) ((+) means that more than 99.99% of all viruses were inactivated; this is equivalent to a reduction factor of 10,000)” in test [3] (setting [7]); “(+) ((+) means that more than 99.99% of all viruses were inactivated; this is equivalent to a reduction factor of 10,000)” in test [3] (setting [8]); “(+) ((+) means that more than 99.99% of all viruses were inactivated; this is equivalent to a reduction factor of 10,000)” in test [3] (1 wt.-percent in water, 1 min); “(+) ((+) means that more than 99.99% of all viruses were inactivated; this is equivalent to a reduction factor of 10,000)” in test [3] (1 wt.-percent in water, 10 min); “(+) ((+) means that more than 99.99% of all viruses were inactivated; this is equivalent to a reduction factor of 10,000)” in test [3] (10 wt.-percent in water, 1 min); “(+) ((+) means that more than 99.99% of all viruses were inactivated; this is equivalent to a reduction factor of 10,000)” in test [3] (setting [9]). The “Virucidal activity HRSV” value is reported as “(+) ((+) means that more than 99.99% of all viruses were inactivated; this is equivalent to a reduction factor of 10,000)” in test [4] (setting [7]); “(+) ((+) means that more than 99.99% of all viruses were inactivated; this is equivalent to a reduction factor of 10,000)” in test [4] (setting [8]); “(+) ((+) means that more than 99.99% of all viruses were inactivated; this is equivalent to a reduction factor of 10,000)” in test [4] (1 wt.-percent in water, 1 min); “(+) ((+) means that more than 99.99% of all viruses were inactivated; this is equivalent to a reduction factor of 10,000)” in test [4] (1 wt.-percent in water, 10 min); “(+) ((+) means that more than 99.99% of all viruses were inactivated; this is equivalent to a reduction factor of 10,000)” in test [4] (10 wt.-percent in water, 1 min); “(+) ((+) means that more than 99.99% of all viruses were inactivated; this is equivalent to a reduction factor of 10,000)” in test [4] (setting [9]). In addition, the reduction factor in test [5] is 10,000.

As to `CCCC(O)CO` (stereo not drawn) [1,2-pentanediol], the “Virucidal activity MHV-3” value is on record as “(+) ((+) means that more than 99.99% of all viruses were inactivated; this is equivalent to a reduction factor of 10,000)” in test [1] (33 wt.-percent in water, 1 min); “(+) ((+) means that more than 99.99% of all viruses were inactivated; this is equivalent to a reduction factor of 10,000)” in test [1] (33 wt.-percent in water, 5 min); “(+) ((+) means that more than 99.99% of all viruses were inactivated; this is equivalent to a reduction factor of 10,000)” in test [1] (setting [6]). For the same compound, the “Virucidal activity H1N1” value in test [2] (33 wt.-percent in water, 1 min) is recorded as “(+) ((+) means that more than 99.99% of all viruses were inactivated; this is equivalent to a reduction factor of 10,000)”; in test [2] (33 wt.-percent in water, 5 min), “(+) ((+) means that more than 99.99% of all viruses were inactivated; this is equivalent to a reduction factor of 10,000)”; in test [2] (setting [6]), “(+) ((+) means that more than 99.99% of all viruses were inactivated; this is equivalent to a reduction factor of 10,000)”. The “Virucidal activity HV” value is reported as “(+) ((+) means that more than 99.99% of all viruses were inactivated; this is equivalent to a reduction factor of 10,000)” in test [3] (33 wt.-percent in water, 1 min); “(+) ((+) means that more than 99.99% of all viruses were inactivated; this is equivalent to a reduction factor of 10,000)” in test [3] (33 wt.-percent in water, 5 min); “(+) ((+) means that more than 99.99% of all viruses were inactivated; this is equivalent to a reduction factor of 10,000)” in test [3] (setting [6]). Also, the “Virucidal activity HRSV” value in test [4] (33 wt.-percent in water, 1 min) is given as “(+) ((+) means that more than 99.99% of all viruses were inactivated; this is equivalent to a reduction factor of 10,000)”; in test [4] (33 wt.-percent in water, 5 min), “(+) ((+) means that more than 99.99% of all viruses were inactivated; this is equivalent to a reduction factor of 10,000)”; in test [4] (setting [6]) it was “(+) ((+) means that more than 99.99% of all viruses were inactivated; this is equivalent to a reduction factor of 10,000)”.
